{"source": "patent US12480166B2", "about": "“Multiplexed fuel analysis” (ANDE Corporation, priority 2018, dated 2025)", "key": {"[1]": {"system": "filamentous fungi 18S, T3", "assay": "General 6-plex Fuel Assay (multiplexed PCR after centrifugation/DNaseI processing) of commercial fleet diesel samples before and after biocide treatment", "assay_type": "cell-based", "details": "real-world diesel samples from commercial fleets, after vs before biocide treatment; FIG. 41", "description": "(§1) The approach relies in part on centrifugation to allow phase separation and to separate the intact microbial cells and cellular debris from the exposed, extracellular genomic DNA material. The extracellular material is then selectively degraded with addition of an enzyme, DNaseI. Note than DNA degradation enzymes in addition to DNAseI can be used in this approach-many such enzymes are available including restriction enzymes (particularly frequent cutters), other endonucleases, and exonucleases. DNA may also be degraded using physical methods.\n(§2) Mock fuel samples were prepared by adding 200 μl of buffer (e.g. 1×PBS, or a preferred solution to prevent cells from lysing while providing an optimal chemical environment for downstream processing) to 800 μl of diesel fuel (previously determined to be negative for microbial contamination) and spiked with 500 ng of purified Bacillus DNA and live Pseudomonas cells (approximately […]). This allowed clear distinction between DNA present extracellularly and intracellularly. The resulting sample was mixed by multiple inversions and then subjected to centrifugation at 20,000×g for 2 minutes to pelletize the live Pseudomonas cells. […]\n(§3) Biocide performance was also measured using an ATP assay for measurement of total microbial load. […]"}, "general bacteria 16S,T1": {"system": "general bacteria 16S,T1", "assay": "General 6-plex Fuel Assay (multiplexed PCR after centrifugation/DNaseI processing) of commercial fleet diesel samples before and after biocide treatment", "assay_type": "cell-based", "details": "real-world diesel samples from commercial fleets, after vs before biocide treatment; FIG. 41", "description": "as §1, §2, §3"}}, "data": [{"smiles": "N#CSCSC#N", "note": "[biocide, methylenebisthiocyanate]", "values": [{"measurement": "filamentous fungi 18S, T3 signal after biocide treatment", "setting": "[1]", "result": "loss"}, {"measurement": "decline in general bacteria 16S,T1 signal after biocide treatment", "setting": "general bacteria 16S,T1", "result": "approximately 75%"}]}]}
